The values below come from patent US5145960A, “Pyrimidinyl tetrahydrofurans” (priority 1991, dated 1992).

What all share (assay type): cell-based
For assay [1], the system named is HCMV (human cytomegalovirus). The assay is described as follows: HCMV (strain AD169) plaque reduction in WI-38 cell monolayers. The settings on record: Human betaherpesvirus 5, AD169; WI-38 cells; at least 50% plaque reduction; 5-7 days at 37° C.; read-out: ID50 HCMV (strain AD169).
For assay [2], the system named is VZV (varicella-zoster virus), strain Ellen. The assay is described as follows: VZV (strain Ellen) plaque reduction in WI-38 cell monolayers. The following applies: Human alphaherpesvirus 3; WI-38 cells; at least 50% plaque reduction; 5-7 days at 37° C.; read-out: ID50 VZV (strain Ellen).
Assay [3] concerns HSV-2 (herpes simplex virus type 2). The assay is described as follows: HSV-2 (strain 186) plaque reduction in WI-38 cell monolayers. The following applies: Human alphaherpesvirus 2, 96 h; WI-38 cells; at least 50% plaque reduction; 4 days at 37° C.; read-out: ID50 HSV-2 (strain 186).
The test system of assay [4] is HSV-1 (herpes simplex virus type 1). Briefly: HSV-1 (strain schooler) plaque reduction in WI-38 cell monolayers. The settings on record: Human alphaherpesvirus 1, 96 h; WI-38 cells; at least 50% plaque reduction; 4 days at 37° C.; read-out: ID50 HSV-1 (strain schooler).
The test system of assay [5] is VV (vaccinia virus). Briefly: microbe, parasite or virus in culture. The following applies: Orthopoxvirus vaccinia, WI-38, 96 h, read-out: ID50 VV (strain CL).
The subject of assay [6] is VZV (varicella-zoster virus), strain Oka. Briefly: VZV (strain Oka) plaque reduction in WI-38 cell monolayers. The settings on record: Human alphaherpesvirus 3, WI-38, read-out: ID50 VZV (strain Oka).

pIC50: −log10 of the molar value. Some results are limits rather than exact numbers.

For `O=c1ccn([C@@H]2CO[C@H](CO)[C@H]2CO)c(=O)[nH]1` [Example 4, [3S-(3α,4β,5α)]-1-[Tetrahydro-4,5-bis(hydroxymethyl)-3-furanyl]-2,4(1H,3H)-pyrimidinedione], the pIC50 in assay [1] is less than 3.38; in assay [2] it was 3.99 to 4.39; in assay [3], less than 3.38; in assay [4], less than 3.38.
Consider `Cc1cn([C@@H]2CO[C@H](CO)[C@H]2CO)c(=O)[nH]c1=O` [Example 3, [3S-(3α,4β,5α)]-5-Methyl-1-[tetrahydro-4,5-bis(hydroxymethyl)-3-furanyl]-2,4(1H,3H)-pyrimidinedione], for which the pIC50 was less than 3.41 in assay [1], 4.72 to 5.10 in assay [2], 3.41 to 3.71 in assay [3] and 5.40 to 5.70 in assay [4].
With `Nc1ncnc2c1ncn2[C@@H]1CO[C@H](CO)[C@H]1CO` [Example 2, [3S-(3α,4β,5α)]-9-[Tetrahydro-4,5-bis(hydroxymethyl)-3-furanyl]-9H-purin-6-amine], the pIC50 is 5.42 to 5.72 in assay [1]; 5.42 to 5.72 in assay [2]; 5.12 to 5.42 in assay [3]; 4.72 to 5.10 in assay [5]; 5.12 to 5.42 in assay [4].
Take `Cc1cn([C@@H]2CO[C@H](CO)[C@H]2CO)c(=O)nc1N` [Example 8, [3S-(3α,4β,5α)]-4-Amino-5-methyl-1-[tetrahydro-4,5-bis(hydroxymethyl)-3-furanyl]-2(1H)-pyrimidinone]: the pIC50 in assay [1] was less than 3.41; in assay [2], 4.40; in assay [3] it was 3.41; in assay [4], 3.53.
Taken in the same sequence, the figures for `Nc1nc(=O)n([C@@H]2CO[C@H](CO)[C@H]2CO)cc1I` [Example 9, [3S-(3α,4β ,5α)]-4-Amino-5-iodo-1-[tetrahydro-4,5-bis(hydroxymethyl)-3-furanyl]-2(1H)-pyrimidinone] were less than 3.57, 4.85 to 5.30, less than 3.57 and 3.87 to 4.17.
Take `O=c1[nH]c(=O)n([C@@H]2CO[C@H](CO)[C@H]2CO)cc1/C=C/Br` [Example 7, [3S-(3α(E),4β,5α)]-5-(2-Bromoethenyl)-1-[tetrahydro-4,5-bis(hydroxymethyl)-3-furanyl]-2,4(1H,3H)-pyrimidinedione]: the pIC50 in assay [1] was less than 3.54; in assay [6], 5.85; in assay [2] it was less than 3.54; in assay [3], less than 3.54; in assay [4], 5.55 to 5.85.
With `O=c1[nH]c(=O)n([C@@H]2CO[C@H](CO)[C@H]2CO)cc1I` [Example 5, [3S-(3α,4β,5α)]-5-Iodo-1-[tetrahydro-4,5-bis(hydroxymethyl)-3-furanyl]-2,4(1H,3H)-pyrimidinedione], the pIC50 in assay [1] is less than 3.57; in assay [2] it was 4.17 to 4.57; in assay [3], less than 3.57; in assay [4], 3.87 to 4.17.
Regarding `Nc1ccn([C@@H]2CO[C@H](CO)[C@H]2CO)c(=O)n1` [Example 6, [3S-(3α,4β,5α)]-4-Amino-1-[tetrahydro-4,5-bis(hydroxymethyl)-3-furanyl]-2(1H)-pyrimidinone], the pIC50 in assay [1] is 3.98 to 4.39; in assay [2], 6.40 to 6.70; in assay [3], 4.39 to 4.68; in assay [5] it was 3.38 to 4.39; in assay [4], 4.39 to 4.68.
For the molecule `Nc1nc2c(ncn2[C@@H]2CO[C@H](CO)[C@H]2CO)c(=O)[nH]1` [Example 1, [3S-(3α,4β,5α)]-2-Amino-1,9-dihydro-9-[tetrahydro-4,5-bis(hydroxymethyl)-3-furanyl]-6H-purin-6-one], the pIC50 is 3.45 in assay [1]; 4.44 to 4.74 in assay [2]; 5.74 in assay [3]; less than 3.45 in assay [5]; 5.15 in assay [4].
